Data from ChEMBL document CHEMBL1275296, “Synthesis and antimicrobial studies of thiazolotriazinones” (2010).
Converted amounts (≈) assume the structure as drawn. The source made the active and inactive calls. No cut-off for these calls is given here.

Tests used:
Aspergillus fumigatus [1] = assay: Antifungal activity against Aspergillus fumigatus by measuring inhibition zone after 48 hrs; format: functional
Talaromyces marneffei [2] = assay: Antifungal activity against Penicillium marneffei after 48 hrs; format: functional
Talaromyces marneffei [3] = assay: Antifungal activity against Penicillium marneffei by measuring inhibition zone after 48 hrs; format: functional
Streptococcus pyogenes [4] = assay: Antibacterial activity against Streptococcus pyogenes after 24 hrs; format: functional
Candida albicans [5] = assay: Antifungal activity against Candida albicans by measuring inhibition zone after 48 hrs; format: functional
Escherichia coli [6] = assay: Antibacterial activity against Escherichia coli after 24 hrs by broth dilution method; format: functional
Aspergillus flavus [7] = assay: Antifungal activity against Aspergillus flavus at >100 ug/mL after 48 hrs; format: functional, organism-based
Streptococcus pyogenes [8] = assay: Antibacterial activity against Streptococcus pyogenes after 24 hrs by broth dilution method; format: functional
Staphylococcus aureus [9] = assay: Antibacterial activity against Staphylococcus aureus after 24 hrs by broth dilution method; format: functional
Aspergillus fumigatus [10] = assay: Antifungal activity against Aspergillus fumigatus after 48 hrs; format: functional
Staphylococcus aureus [11] = assay: Antibacterial activity against Staphylococcus aureus after 24 hrs; format: functional
Klebsiella pneumoniae [12] = assay: Antibacterial activity against Klebsiella pneumoniae at >100 ug/mL after 24 hrs by broth dilution method; format: functional, organism-based
[13] = tested on: Trichophyton mentagrophytes; assay: Antifungal activity against Trichophyton mentagrophytes by measuring inhibition zone after 48 hrs; format: functional
[14] = tested on: Trichophyton mentagrophytes; assay: Antifungal activity against Trichophyton mentagrophytes after 48 hrs; format: functional
Escherichia coli [15] = assay: Antibacterial activity against Escherichia coli after 24 hrs; format: functional
Pseudomonas aeruginosa [16] = assay: Antibacterial activity against Pseudomonas aeruginosa at >100 ug/mL after 24 hrs by broth dilution method; format: functional, organism-based
Candida albicans [17] = assay: Antifungal activity against Candida albicans after 48 hrs; format: functional
Klebsiella pneumoniae [18] = assay: Antibacterial activity against Klebsiella pneumoniae after 24 hrs; format: functional
Klebsiella pneumoniae [19] = assay: Antibacterial activity against Klebsiella pneumoniae after 24 hrs by broth dilution method; format: functional
Pseudomonas aeruginosa [20] = assay: Antibacterial activity against Pseudomonas aeruginosa after 24 hrs by broth dilution method; format: functional
Aspergillus flavus [21] = assay: Antifungal activity against Aspergillus flavus by measuring inhibition zone after 48 hrs; format: functional
Aspergillus flavus [22] = assay: Antifungal activity against Aspergillus flavus after 48 hrs; format: functional
Pseudomonas aeruginosa [23] = assay: Antibacterial activity against Pseudomonas aeruginosa after 24 hrs; format: functional
Talaromyces marneffei [24] = assay: Antifungal activity against Penicillium marneffei at >100 ug/mL after 48 hrs; format: functional, organism-based
[25] = tested on: Trichophyton mentagrophytes; assay: Antifungal activity against Trichophyton mentagrophytes at >100 ug/mL after 48 hrs; format: functional, organism-based
Candida albicans [26] = assay: Antifungal activity against Candida albicans at >100 ug/mL after 48 hrs; format: functional, organism-based
Aspergillus fumigatus [27] = assay: Antifungal activity against Aspergillus fumigatus at >100 ug/mL after 48 hrs; format: functional, organism-based
Escherichia coli [28] = assay: Antibacterial activity against Escherichia coli at >100 ug/mL after 24 hrs by broth dilution method; format: functional, organism-based

Row | SMILES | inhibition zone (IZ) (Aspergillus fumigatus [1]) [mm] | MIC (Talaromyces marneffei [2]) [µg/mL] | inhibition zone (IZ) (Talaromyces marneffei [3]) [mm] | inhibition zone (IZ) (Streptococcus pyogenes [4]) [mm] | inhibition zone (IZ) (Candida albicans [5]) [mm] | MIC (Escherichia coli [6]) [µg/mL] | MIC (Streptococcus pyogenes [8]) [µg/mL] | MIC (Staphylococcus aureus [9]) [µg/mL] | MIC (Aspergillus fumigatus [10]) [µg/mL] | inhibition zone (IZ) (Staphylococcus aureus [11]) [mm] | inhibition zone (IZ) [13] [mm] | MIC [14] [µg/mL] | inhibition zone (IZ) (Escherichia coli [15]) [mm] | MIC (Candida albicans [17]) [µg/mL] | inhibition zone (IZ) (Klebsiella pneumoniae [18]) [mm] | MIC (Klebsiella pneumoniae [19]) [µg/mL] | MIC (Pseudomonas aeruginosa [20]) [µg/mL] | inhibition zone (IZ) (Aspergillus flavus [21]) [mm] | MIC (Aspergillus flavus [22]) [µg/mL] | inhibition zone (IZ) (Pseudomonas aeruginosa [23]) [mm] | also measured
1 | COc1ccc(-c2csc3nnc(Cc4ccc(Cl)cc4Cl)c(=O)n23)cc1 | 20 | 25 (≈ 59.8 µM) | 9 | 8 | 17 | 6.25 (≈ 14.9 µM) | 25 (≈ 59.8 µM) | 12.5 (≈ 29.9 µM) | 6.25 (≈ 14.9 µM) | 12 | 17 | 6.25 (≈ 14.9 µM) | 22 | 6.25 (≈ 14.9 µM) |  |  |  |  |  |  | inhibition (Aspergillus flavus [7]): inactive; inhibition (Klebsiella pneumoniae [12]): inactive; inhibition (Pseudomonas aeruginosa [16]): inactive
2 | O=c1c(Cc2ccc(Cl)cc2)nnc2scc(-c3cc(F)c(Cl)cc3Cl)n12 | 25 | 6.25 (≈ 14.2 µM) | 25 | 24 | 17 | 6.25 (≈ 14.2 µM) | 6.25 (≈ 14.2 µM) | 6.25 (≈ 14.2 µM) | 6.25 (≈ 14.2 µM) | 21 | 21 | 6.25 (≈ 14.2 µM) | 27 | 6.25 (≈ 14.2 µM) | 18 | 6.25 (≈ 14.2 µM) | 6.25 (≈ 14.2 µM) | 18 | 6.25 (≈ 14.2 µM) | 29 | 
3 | O=C(O)c1cn(C2CC2)c2cc(N3CCNCC3)c(F)cc2c1=O [CIPROFLOXACIN] |  |  |  | 25 |  |  | 6.25 (≈ 18.9 µM) |  |  | 23 |  |  | 30 |  | 22 | 6.25 (≈ 18.9 µM) |  |  |  | 33 | 
4 | O=c1c(Cc2ccc(Cl)cc2)nnc2scc(-c3ccc(Br)cc3)n12 | 8 |  |  | 21 | 17 | 25 (≈ 57.8 µM) | 6.25 (≈ 14.4 µM) | 6.25 (≈ 14.4 µM) | 25 (≈ 57.8 µM) | 23 | 12 | 12.5 (≈ 28.9 µM) | 9 | 6.25 (≈ 14.4 µM) | 19 | 6.25 (≈ 14.4 µM) | 12.5 (≈ 28.9 µM) |  |  | 14 | inhibition (Aspergillus flavus [7]): inactive; inhibition (Talaromyces marneffei [24]): inactive
5 | O=c1c(Cc2ccc(Cl)cc2Cl)nnc2scc(-c3ccc([N+](=O)[O-])cc3)n12 |  | 12.5 (≈ 28.8 µM) | 10 | 17 |  | 12.5 (≈ 28.8 µM) | 6.25 (≈ 14.4 µM) | 6.25 (≈ 14.4 µM) |  | 20 |  |  | 15 |  |  |  | 6.25 (≈ 14.4 µM) | 14 | 12.5 (≈ 28.8 µM) | 27 | inhibition [25]: inactive; inhibition (Candida albicans [26]): inactive; inhibition (Klebsiella pneumoniae [12]): inactive; inhibition (Aspergillus fumigatus [27]): inactive
6 | O=c1c(Cc2ccc(Cl)cc2Cl)nnc2scc(-c3ccc(Br)cc3)n12 | 12 |  |  | 20 | 7 | 6.25 (≈ 13.4 µM) | 6.25 (≈ 13.4 µM) | 6.25 (≈ 13.4 µM) | 12.5 (≈ 26.8 µM) | 21 | 11 | 12.5 (≈ 26.8 µM) | 26 | 25 (≈ 53.5 µM) | 18 | 6.25 (≈ 13.4 µM) | 6.25 (≈ 13.4 µM) | 16 | 6.25 (≈ 13.4 µM) | 29 | inhibition (Talaromyces marneffei [24]): inactive
7 | O=c1c(Cc2ccc(Cl)cc2)nnc2scc(-c3ccc([N+](=O)[O-])cc3)n12 | 15 | 6.25 (≈ 15.7 µM) | 21 | 9 | 18 | 6.25 (≈ 15.7 µM) | 25 (≈ 62.7 µM) | 25 (≈ 62.7 µM) | 6.25 (≈ 15.7 µM) | 9 | 7 | 25 (≈ 62.7 µM) | 25 | 6.25 (≈ 15.7 µM) |  |  | 25 (≈ 62.7 µM) |  |  | 8 | inhibition (Aspergillus flavus [7]): inactive; inhibition (Klebsiella pneumoniae [12]): inactive
8 | O=c1c(Cc2ccc(Cl)cc2Cl)nnc2scc(-c3ccc(Cl)cc3)n12 | 24 | 6.25 (≈ 14.8 µM) | 23 | 23 | 18 | 6.25 (≈ 14.8 µM) | 6.25 (≈ 14.8 µM) | 6.25 (≈ 14.8 µM) | 6.25 (≈ 14.8 µM) | 21 | 21 | 6.25 (≈ 14.8 µM) | 29 | 6.25 (≈ 14.8 µM) | 19 | 6.25 (≈ 14.8 µM) | 6.25 (≈ 14.8 µM) | 21 | 6.25 (≈ 14.8 µM) | 32 | 
9 | COc1ccc(-c2csc3nnc(Cc4ccc(Cl)cc4)c(=O)n23)cc1 |  | 25 (≈ 65.1 µM) | 9 | 10 | 11 |  | 25 (≈ 65.1 µM) | 12.5 (≈ 32.6 µM) |  | 12 | 14 | 12.5 (≈ 32.6 µM) |  | 12.5 (≈ 32.6 µM) | 19 | 6.25 (≈ 16.3 µM) | 12.5 (≈ 32.6 µM) | 19 | 6.25 (≈ 16.3 µM) | 14 | inhibition (Escherichia coli [28]): inactive; inhibition (Aspergillus fumigatus [27]): inactive
10 | O=c1c(Cc2ccc(Cl)cc2Cl)nnc2scc(-c3cc(F)c(Cl)cc3Cl)n12 | 24 | 6.25 (≈ 13.2 µM) | 25 | 24 | 20 | 6.25 (≈ 13.2 µM) | 6.25 (≈ 13.2 µM) | 6.25 (≈ 13.2 µM) | 6.25 (≈ 13.2 µM) | 21 | 22 | 6.25 (≈ 13.2 µM) | 29 | 6.25 (≈ 13.2 µM) | 19 | 6.25 (≈ 13.2 µM) | 6.25 (≈ 13.2 µM) | 21 | 6.25 (≈ 13.2 µM) | 31 | 
11 | C[C@@H]1[C@H](O)[C@@H](C)/C=C/C=C/C=C/C=C/C=C/C=C/C=C/[C@H](O[C@@H]2O[C@H](C)[C@@H](O)[C@H](N)[C@@H]2O)C[C@@H]2O[C@](O)(C[C@@H](O)C[C@@H](O)[C@H](O)CC[C@@H](O)C[C@@H](O)CC(=O)O[C@H]1C)C[C@H](O)[C@H]2C(=O)O [AMPHOTERICIN B] | 25 | 6.25 (≈ 6.76 µM) | 25 |  | 19 |  |  |  | 6.25 (≈ 6.76 µM) |  | 23 | 6.25 (≈ 6.76 µM) |  | 6.25 (≈ 6.76 µM) |  |  |  | 21 | 6.25 (≈ 6.76 µM) |  | 
12 | O=c1c(Cc2ccc(Cl)cc2)nnc2scc(-c3ccc(Cl)cc3)n12 | 22 | 6.25 (≈ 16.1 µM) | 22 | 23 | 20 | 6.25 (≈ 16.1 µM) | 6.25 (≈ 16.1 µM) | 6.25 (≈ 16.1 µM) | 6.25 (≈ 16.1 µM) | 23 | 25 | 6.25 (≈ 16.1 µM) | 26 | 6.25 (≈ 16.1 µM) | 20 | 6.25 (≈ 16.1 µM) | 6.25 (≈ 16.1 µM) | 22 | 6.25 (≈ 16.1 µM) | 33 | 
